# Measured values reported in ChEMBL document CHEMBL5532665 (J Med Chem, 2024).
# The source made the active and inactive calls. No cut-off for these calls is given here.
# Tests used:
# [1] = biological target: T1, Mu-type opioid receptor (Homo sapiens, UniProt P35372); assay: Agonist activity at human MOR expressed in CHO-K1 cells co-expressing G-alpha15 by calcium mobilization assay; type: functional, cell-based
# [2] = biological target: Kappa-type opioid receptor (Homo sapiens, UniProt P41145); assay: Agonist activity at human KOR expressed in CHO-K1 cells co-expressing G-alpha15 upto 100 uM by calcium mobilization assay; type: functional, cell-based
# Sequence of Kappa-type opioid receptor (P41145 whole entry): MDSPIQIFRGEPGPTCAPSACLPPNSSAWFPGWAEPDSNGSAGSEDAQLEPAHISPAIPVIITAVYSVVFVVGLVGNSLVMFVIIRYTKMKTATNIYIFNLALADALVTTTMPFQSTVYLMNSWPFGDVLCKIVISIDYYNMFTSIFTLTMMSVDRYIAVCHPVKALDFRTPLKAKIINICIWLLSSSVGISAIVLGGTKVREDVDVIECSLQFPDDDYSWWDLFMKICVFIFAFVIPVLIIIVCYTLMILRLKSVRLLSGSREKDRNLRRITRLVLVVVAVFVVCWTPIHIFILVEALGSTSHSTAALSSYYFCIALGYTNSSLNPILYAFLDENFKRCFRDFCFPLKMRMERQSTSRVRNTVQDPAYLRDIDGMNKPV
# [3] = biological target: T1, Mu-type opioid receptor; assay: Agonist activity at human MOR expressed in CHO-K1 cells co-expressing G-alpha15 by calcium mobilization assay relative to control; type: functional, cell-based; conditions: filed as agonist
# [4] = tested on: Mus musculus; assay: Antinociceptive activity in Kunming mouse model assessed as latency of tail withdrawal at 134 nmol/kg, sc measured for 10 mins by tail-flick test relative to control; type: functional
# [5] = tested on: Mus musculus; assay: Antinociceptive activity in Kunming mouse model assessed as latency of tail withdrawal at 134 nmol/kg, sc measured for 30 mins by tail-flick test relative to control; type: functional; conditions: 0.5 h
# [6] = tested on: Mus musculus; assay: Antinociceptive activity in Kunming mouse model assessed as latency of tail withdrawal at 134 nmol/kg, sc measured for 60 mins by tail-flick test relative to control; type: functional; conditions: 1 h
# [7] = tested on: Mus musculus; assay: Antinociceptive activity in Kunming mouse model assessed as latency of tail withdrawal at 134 nmol/kg, sc measured for 120 mins by tail-flick test relative to control; type: functional; conditions: 2 h
# [8] = tested on: Mus musculus; assay: Antinociceptive activity in Kunming mouse model assessed as latency of tail withdrawal at 136.2 nmol/kg, sc measured for 10 mins by tail-flick test relative to control; type: functional
# [9] = tested on: Mus musculus; assay: Antinociceptive activity in Kunming mouse model assessed as latency of tail withdrawal at 136.2 nmol/kg, sc measured for 30 mins by tail-flick test relative to control; type: functional; conditions: 0.5 h
# [10] = tested on: Mus musculus; assay: Antinociceptive activity in Kunming mouse model assessed as latency of tail withdrawal at 136.2 nmol/kg, sc measured for 60 mins by tail-flick test relative to control; type: functional; conditions: 1 h
# [11] = tested on: Mus musculus; assay: Antinociceptive activity in Kunming mouse model assessed as latency of tail withdrawal at 136.2 nmol/kg, sc measured for 120 mins by tail-flick test relative to control; type: functional; conditions: 2 h
# [12] = biological target: T2, Delta-type opioid receptor (Homo sapiens, UniProt P41143); assay: Agonist activity at human DOR expressed in CHO-K1 cells co-expressing G-alpha15 by calcium mobilization assay; type: functional, cell-based
# T2 sequence (P41143 whole entry): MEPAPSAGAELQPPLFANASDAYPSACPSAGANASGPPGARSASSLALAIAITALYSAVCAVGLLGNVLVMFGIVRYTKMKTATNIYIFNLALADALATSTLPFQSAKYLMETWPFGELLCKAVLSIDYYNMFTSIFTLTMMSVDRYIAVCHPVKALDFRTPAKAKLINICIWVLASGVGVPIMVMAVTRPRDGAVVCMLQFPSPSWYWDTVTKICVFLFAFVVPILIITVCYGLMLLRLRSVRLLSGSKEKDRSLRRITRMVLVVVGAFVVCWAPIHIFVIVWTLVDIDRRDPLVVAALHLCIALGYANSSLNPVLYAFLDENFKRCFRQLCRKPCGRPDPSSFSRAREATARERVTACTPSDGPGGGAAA
# [13] = biological target: T2, Delta-type opioid receptor; assay: Agonist activity at human DOR expressed in CHO-K1 cells co-expressing G-alpha15 by calcium mobilization assay relative to control; type: functional, cell-based; conditions: filed as agonist
# [14] = tested on: Mus musculus; assay: Antinociceptive activity in Kunming mouse model assessed as latency of tail withdrawal at 14157 nmol/kg, sc measured for 10 mins by tail-flick test relative to control; type: functional
# [15] = tested on: Mus musculus; assay: Antinociceptive activity in Kunming mouse model assessed as latency of tail withdrawal at 14157 nmol/kg, sc measured for 30 mins by tail-flick test relative to control; type: functional; conditions: 0.5 h
# [16] = tested on: Mus musculus; assay: Antinociceptive activity in Kunming mouse model assessed as latency of tail withdrawal at 14157 nmol/kg, sc measured for 60 mins by tail-flick test relative to control; type: functional; conditions: 1 h
# [17] = tested on: Mus musculus; assay: Antinociceptive activity in Kunming mouse model assessed as latency of tail withdrawal at 14157 nmol/kg, sc measured for 120 mins by tail-flick test relative to control; type: functional; conditions: 2 h
# [18] = Stability in mouse plasma assessed as half life at 0.01 mol/L measured for 72 hrs by RP-HPLC analysis; type: ADME, cell-free
# [19] = tested on: Mus musculus; assay: Antinociceptive activity in Kunming mouse model assessed as latency of tail withdrawal at 1.4 nmol/kg, sc measured for 10 mins by tail-flick test relative to control; type: functional
# [20] = tested on: Mus musculus; assay: Antinociceptive activity in Kunming mouse model assessed as latency of tail withdrawal at 1.4 nmol/kg, sc measured for 30 mins by tail-flick test relative to control; type: functional; conditions: 0.5 h
# [21] = tested on: Mus musculus; assay: Antinociceptive activity in Kunming mouse model assessed as latency of tail withdrawal at 1.4 nmol/kg, sc measured for 60 mins by tail-flick test relative to control; type: functional; conditions: 1 h
# [22] = tested on: Mus musculus; assay: Antinociceptive activity in Kunming mouse model assessed as latency of tail withdrawal at 1.4 nmol/kg, sc measured for 120 mins by tail-flick test relative to control; type: functional; conditions: 2 h
# [23] = tested on: Mus musculus; assay: Antinociceptive activity in Kunming mouse model administered subcutaneously by tail-flick test; type: functional; conditions: route sc
# [24] = tested on: Mus musculus; assay: Antinociceptive activity in Kunming mouse model administered orally by tail-flick test; type: functional; conditions: route po
# [25] = tested on: Mus musculus; assay: Antinociceptive activity in Kunming mouse model administered subcutaneously measured for 5 to 15 mins by acetic acid-induced writhing test; type: functional; conditions: route sc, time 5-15 min
# [26] = tested on: Mus musculus; assay: Inhibition of gastrointestinal motility in fasted Kunming mouse model treated subcutaneously for 15 mins followed by charcoal-gum arabic treatment measured after 30 mins; type: functional; conditions: 0.75 h, route sc, time 45 min
# [27] = tested on: Mus musculus; assay: Antinociceptive activity in Kunming mouse model assessed as latency of tail withdrawal at 1404 nmol/kg, sc measured for 10 mins by tail-flick test relative to control; type: functional
# [28] = tested on: Mus musculus; assay: Antinociceptive activity in Kunming mouse model assessed as latency of tail withdrawal at 1404 nmol/kg, sc measured for 30 mins by tail-flick test relative to control; type: functional; conditions: 0.5 h
# [29] = tested on: Mus musculus; assay: Antinociceptive activity in Kunming mouse model assessed as latency of tail withdrawal at 1404 nmol/kg, sc measured for 60 mins by tail-flick test relative to control; type: functional; conditions: 1 h
# [30] = tested on: Mus musculus; assay: Antinociceptive activity in Kunming mouse model assessed as latency of tail withdrawal at 1404 nmol/kg, sc measured for 120 mins by tail-flick test relative to control; type: functional; conditions: 2 h
# [31] = tested on: Mus musculus; assay: Antinociceptive activity in Kunming mouse model assessed as latency of tail withdrawal at 164.1 nmol/kg, sc measured for 10 mins by tail-flick test relative to control; type: functional
# [32] = tested on: Mus musculus; assay: Antinociceptive activity in Kunming mouse model assessed as latency of tail withdrawal at 164.1 nmol/kg, sc measured for 30 mins by tail-flick test relative to control; type: functional; conditions: 0.5 h
# [33] = tested on: Mus musculus; assay: Antinociceptive activity in Kunming mouse model assessed as latency of tail withdrawal at 164.1 nmol/kg, sc measured for 60 mins by tail-flick test relative to control; type: functional; conditions: 1 h
# [34] = tested on: Mus musculus; assay: Antinociceptive activity in Kunming mouse model assessed as latency of tail withdrawal at 164.1 nmol/kg, sc measured for 120 mins by tail-flick test relative to control; type: functional; conditions: 2 h
# T1 sequence (P35372 whole entry): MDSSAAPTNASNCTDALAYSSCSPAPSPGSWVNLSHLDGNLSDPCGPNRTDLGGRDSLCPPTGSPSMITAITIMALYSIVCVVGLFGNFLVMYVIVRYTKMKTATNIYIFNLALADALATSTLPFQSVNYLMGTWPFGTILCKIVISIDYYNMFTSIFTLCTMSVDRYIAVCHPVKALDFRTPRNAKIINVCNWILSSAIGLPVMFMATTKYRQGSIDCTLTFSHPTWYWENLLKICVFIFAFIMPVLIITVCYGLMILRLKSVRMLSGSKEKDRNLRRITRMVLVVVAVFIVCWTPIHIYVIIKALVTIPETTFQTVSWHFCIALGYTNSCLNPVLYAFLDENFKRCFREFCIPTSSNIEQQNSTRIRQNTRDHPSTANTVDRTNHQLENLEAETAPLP
compound,measurement,setting,value
NC(=O)[C@@H]1CCCN1C(=O)[C@H]1CC(=O)NCCCC[C@@H](NC(=O)[C@@H](N)Cc2ccc(O)cc2)C(=O)N2CCC[C@H]2C(=O)N[C@@H](Cc2ccccc2)C(=O)N1,EC50,[1],2090 nM
same,Activity,[2],inactive
same,Emax,[3],83.6%
same,MPE,[4],57.9%
same,MPE,[5],88%
same,MPE,[6],84.5%
same,MPE,[7],46.1%
CC1(C)NC(=O)[C@H](NC(=O)[C@@H](N)Cc2ccc(O)cc2)CCCCNC(=O)C[C@@H](C(=O)N2CCC[C@@H]2C(N)=O)NC(=O)[C@H](Cc2ccccc2)NC1=O,MPE,[8],48.9%
same,MPE,[9],91.1%
same,MPE,[10],69.3%
same,MPE,[11],46.1%
N[C@@H](Cc1ccc(O)cc1)C(=O)N[C@@H]1CCCCNC(=O)C[C@H](C(=O)N2CCC[C@H]2C(=O)O)NC(=O)[C@H](Cc2ccccc2)NC(=O)CNC1=O,EC50,[1],3.8 nM
same,Emax,[3],94.8%
same,EC50,[12],3.3 nM
same,Emax,[13],109%
same,MPE,[14],65%
same,MPE,[15],97.4%
same,MPE,[16],77%
same,MPE,[17],37.3%
same,half-life at 0.01 mol/L,[18],23 h
NC(=O)[C@H]1CCCN1C(=O)[C@@H]1CC(=O)NCCCC[C@@H](NC(=O)[C@@H](N)Cc2ccc(O)cc2)C(=O)NCC(=O)N[C@@H](Cc2ccc(F)cc2)C(=O)N1,MPE,[19],59.2%
same,MPE,[20],93.1%
same,MPE,[21],84.1%
same,MPE,[22],34.3%
same,ED50,[23],8e-05 µmol/kg
same,ED50,[24],9e-05 µmol/kg
same,ED50,[25],0.0002 µmol/kg
same,ED50,[26],0.0044 µmol/kg
NC(=O)[C@H]1CCCN1C(=O)[C@@H]1CC(=O)NCCCC[C@@H](NC(=O)[C@@H](N)Cc2ccc(O)cc2)C(=O)NCC(=O)N[C@@H](CC2CCCCC2)C(=O)N1,MPE,[27],61.9%
same,MPE,[28],92.4%
same,MPE,[29],74.3%
same,MPE,[30],36.1%
NC(=O)[C@@H]1CC(=O)NCCCC[C@@H](NC(=O)[C@@H](N)Cc2ccc(O)cc2)C(=O)NCC(=O)N[C@@H](Cc2ccccc2)C(=O)N1,MPE,[31],70.7%
same,MPE,[32],95.4%
same,MPE,[33],71.9%
same,MPE,[34],43.8%
